Legend:
Type in all cases: in vivo
Sagittaria pygmaea, L. = assay: Preemergence weed control under flooded paddy conditions, SAGPY (Arrowhead (Pygmaea)); conditions: flooded paddy; for SAGPY: preemergence weeds, herbicidal effect rating 0-9, three to four weeks after treatment; for SAGPY herbicidal rating / herbicidal effect rating, SAGPY: preemergence, rated three to four weeks after treatment; for herbicidal effect rating, SAGPY: meaning of each grade not given here
[1] = system: Monochoria vaginalis, Presl.; assay: Preemergence weed control under flooded paddy conditions, MOOVA (Monochoria); conditions: flooded paddy; for MOOVA: preemergence weeds, herbicidal effect rating 0-9, three to four weeks after treatment; for MOOVA herbicidal rating / herbicidal effect rating, MOOVA: preemergence, rated three to four weeks after treatment; for herbicidal effect rating, MOOVA: meaning of each grade not given here
[2] = system: Cyperus serotinus, Rottb.; assay: Preemergence weed control under flooded paddy conditions, CYPSE (Flatsedge); conditions: for CYPSE: preemergence weeds, herbicidal effect rating 0-9, three to four weeks after treatment; for CYPSE herbicidal rating / herbicidal effect rating, CYPSE: preemergence, rated three to four weeks after treatment; for herbicidal effect rating, CYPSE: meaning of each grade not given here
[3] = system: Echinochloa oryzoides (Ard.) Fritsch.; assay: Preemergence weed control under flooded paddy conditions, ECHORC (Watergrass (Calif.)); conditions: flooded paddy; for ECHORC: preemergence weeds, herbicidal effect rating 0-9, three to four weeks after treatment; for ECHORC herbicidal rating / herbicidal effect rating, ECHORC: preemergence, rated three to four weeks after treatment; for herbicidal effect rating, ECHORC: meaning of each grade not given here
Cyperus iria = assay: Preemergence weed control under flooded paddy conditions, CYPIR (Rice Flatsedge); conditions: flooded paddy; for CYPIR: preemergence weeds, herbicidal effect rating 0-9, three to four weeks after treatment; for CYPIR herbicidal rating / herbicidal effect rating, CYPIR: preemergence, rated three to four weeks after treatment; for herbicidal effect rating, CYPIR: meaning of each grade not given here

SMILES: COC(=O)COc1ccc(C)cc1-c1nsc2cc(Cl)c(-n3c(=O)cc(C(F)(F)F)n(C)c3=O)cc12 [Example 443, Acetic acid, {{2-{6-chloro-5-[3,6-dihydro-3-methyl-2,6-dioxo-4-(trifluoromethyl)-1(2H)-pyrimidinyl]-1,2-benzisothiazol-3-yl}-p-tolyl}oxy}-, methyl ester]
- SAGPY (Sagittaria pygmaea, L.; 0.0320 kg/ha): 3.0
- SAGPY (Sagittaria pygmaea, L.; 0.0620 kg/ha): 3.0
- SAGPY (Sagittaria pygmaea, L.; 0.1250 kg/ha): 4.0
- SAGPY (Sagittaria pygmaea, L.; 0.2500 kg/ha): 5.0
- MOOVA ([1]; 0.0320 kg/ha): 5.0
- MOOVA ([1]; 0.0620 kg/ha): 6.0
- MOOVA ([1]; 0.1250 kg/ha): 7.0
- MOOVA ([1]; 0.2500 kg/ha): 7.0
- CYPSE ([2]; 0.0320 kg/ha): 0.0
- CYPSE ([2]; 0.0620 kg/ha): 0.0
- CYPSE ([2]; 0.1250 kg/ha): 0.0
- ECHORC ([3]; 0.0320 kg/ha): 6.0
- ECHORC ([3]; 0.0620 kg/ha): 5.0
- ECHORC ([3]; 0.1250 kg/ha): 7.0
- ECHORC ([3]; 0.2500 kg/ha): 9.0
- CYPIR (Cyperus iria; 0.0320 kg/ha): 4.0
- CYPIR (Cyperus iria; 0.0620 kg/ha): 6.0
- CYPIR (Cyperus iria; 0.1250 kg/ha): 7.0
- CYPIR (Cyperus iria; 0.2500 kg/ha): 7.0

SMILES: Cn1c(C(F)(F)F)cc(=O)n(-c2ccc3snc(COC(=O)c4cccs4)c3c2)c1=O [Example 477, 2,4(1H,3H)-Pyrimidinedione, 3-[3-(hydroxymethyl)-1,2-benzisothiazol-5-yl]-1-methyl-6-(trifluoromethyl)-, 2-thiophenecarboxylate (ester)]
- SAGPY herbicidal rating (Sagittaria pygmaea, L.; 0.0320 kg/ha): 0.0
- SAGPY herbicidal rating (Sagittaria pygmaea, L.; 0.0620 kg/ha): 0.0
- SAGPY herbicidal rating (Sagittaria pygmaea, L.; 0.1250 kg/ha): 0.0
- SAGPY herbicidal rating (Sagittaria pygmaea, L.; 0.2500 kg/ha): 2.0
- MOOVA herbicidal rating ([1]; 0.0320 kg/ha): 3.0
- MOOVA herbicidal rating ([1]; 0.0620 kg/ha): 3.0
- MOOVA herbicidal rating ([1]; 0.1250 kg/ha): 6.0
- MOOVA herbicidal rating ([1]; 0.2500 kg/ha): 7.0
- CYPSE herbicidal rating ([2]; 0.0320 kg/ha): 3.0
- CYPSE herbicidal rating ([2]; 0.0620 kg/ha): 3.0
- CYPSE herbicidal rating ([2]; 0.2500 kg/ha): 3.0
- ECHORC herbicidal rating ([3]; 0.0320 kg/ha): 0.0
- ECHORC herbicidal rating ([3]; 0.0620 kg/ha): 0.0
- ECHORC herbicidal rating ([3]; 0.1250 kg/ha): 2.0
- ECHORC herbicidal rating ([3]; 0.2500 kg/ha): 3.0
- CYPIR herbicidal rating (Cyperus iria; 0.0320 kg/ha): 4.0
- CYPIR herbicidal rating (Cyperus iria; 0.0620 kg/ha): 4.0
- CYPIR herbicidal rating (Cyperus iria; 0.1250 kg/ha): 5.0
- CYPIR herbicidal rating (Cyperus iria; 0.2500 kg/ha): 6.0

SMILES: Cn1c(C(F)(F)F)cc(=O)n(-c2ccc3snc(C(C#N)=CC4CCCC4)c3c2)c1=O [Example 607, 1,2-Benzisothiazole-3-acetonitrile, alpha(cyclopentylmethylene)-5-[3,6-dihydro-3-methyl-2,6-dioxo-4-(trifluoromethyl)-1(2H)-pyrimidinyl]-, (E)- and (Z)-]
- herbicidal effect rating, SAGPY (Sagittaria pygmaea, L.; Rate 0.0320 kg/ha): 0.0
- herbicidal effect rating, SAGPY (Sagittaria pygmaea, L.; Rate 0.0620 kg/ha): 0.0
- herbicidal effect rating, SAGPY (Sagittaria pygmaea, L.; Rate 0.1250 kg/ha): 0.0
- herbicidal effect rating, SAGPY (Sagittaria pygmaea, L.; Rate 0.2500 kg/ha): 3.0
- herbicidal effect rating, MOOVA ([1]; Rate 0.0320 kg/ha): 6.0
- herbicidal effect rating, MOOVA ([1]; Rate 0.0620 kg/ha): 7.0
- herbicidal effect rating, MOOVA ([1]; Rate 0.1250 kg/ha): 9.0
- herbicidal effect rating, MOOVA ([1]; Rate 0.2500 kg/ha): 9.0
- herbicidal effect rating, CYPSE ([2]; Rate 0.0620 kg/ha): 0.0
- herbicidal effect rating, CYPSE ([2]; Rate 0.1250 kg/ha): 0.0
- herbicidal effect rating, CYPSE ([2]; Rate 0.2500 kg/ha): 0.0
- herbicidal effect rating, ECHORC ([3]; Rate 0.0320 kg/ha): 4.0
- herbicidal effect rating, ECHORC ([3]; Rate 0.0620 kg/ha): 7.0
- herbicidal effect rating, ECHORC ([3]; Rate 0.1250 kg/ha): 9.0
- herbicidal effect rating, ECHORC ([3]; Rate 0.2500 kg/ha): 9.0
- herbicidal effect rating, CYPIR (Cyperus iria; Rate 0.0320 kg/ha): 0.0
- herbicidal effect rating, CYPIR (Cyperus iria; Rate 0.0620 kg/ha): 2.0
- herbicidal effect rating, CYPIR (Cyperus iria; Rate 0.1250 kg/ha): 5.0
- herbicidal effect rating, CYPIR (Cyperus iria; Rate 0.2500 kg/ha): 5.0

SMILES: Cn1c(C(F)(F)F)cc(=O)n(-c2ccc3snc(COC(=O)c4cc(Cl)nc(Cl)c4)c3c2)c1=O [Example 474, 2,4(1H,3H)-Pyrimidinedione, 3-[3-(hydroxymethyl)-1,2-benzisothiazol-5-yl]-1-methyl-6-(trifluoromethyl)-, 2,6-dichloroisonicotinate (ester)]
- SAGPY herbicidal rating (Sagittaria pygmaea, L.; 0.0320 kg/ha): 0.0
- SAGPY herbicidal rating (Sagittaria pygmaea, L.; 0.0620 kg/ha): 0.0
- SAGPY herbicidal rating (Sagittaria pygmaea, L.; 0.1250 kg/ha): 0.0
- SAGPY herbicidal rating (Sagittaria pygmaea, L.; 0.2500 kg/ha): 0.0
- MOOVA herbicidal rating ([1]; 0.0320 kg/ha): 2.0
- MOOVA herbicidal rating ([1]; 0.0620 kg/ha): 3.0
- MOOVA herbicidal rating ([1]; 0.1250 kg/ha): 7.0
- MOOVA herbicidal rating ([1]; 0.2500 kg/ha): 9.0
- CYPSE herbicidal rating ([2]; 0.0320 kg/ha): 0.0
- CYPSE herbicidal rating ([2]; 0.0620 kg/ha): 0.0
- CYPSE herbicidal rating ([2]; 0.1250 kg/ha): 0.0
- CYPSE herbicidal rating ([2]; 0.2500 kg/ha): 0.0
- ECHORC herbicidal rating ([3]; 0.0320 kg/ha): 0.0
- ECHORC herbicidal rating ([3]; 0.0620 kg/ha): 0.0
- ECHORC herbicidal rating ([3]; 0.1250 kg/ha): 0.0
- ECHORC herbicidal rating ([3]; 0.2500 kg/ha): 0.0
- CYPIR herbicidal rating (Cyperus iria; 0.0320 kg/ha): 2.0
- CYPIR herbicidal rating (Cyperus iria; 0.0620 kg/ha): 5.0
- CYPIR herbicidal rating (Cyperus iria; 0.1250 kg/ha): 4.0
- CYPIR herbicidal rating (Cyperus iria; 0.2500 kg/ha): 6.0

Reference: EP0908457B1, “3-(1,2-benzisothiazol- and isoxazol-5-Y1)-2,4(1H,3H)-pyrimidinedione or thione and 3-(1,2-benzisothiazol- and isoxazol-5-y1)-4(3H)-pyrimidinone or thione herbicidal agents” (BASF AKTIENGESELLSCHAFT, priority 1997, dated 1999)
